SMILES strings stand for the structures. The source made the active and inactive calls.

A short description of test [1]: Cytotoxicity screening for potential Inhibitors of Bacterial Capsule Biogenesis. [Related pubchem assays (depositor defined):AID488970]. It counts as functional.
A short description of test [2]: Trypanosoma cruzi growth suppression in host cells – NIH3T3 host cells, beta-gal luminescence, confirmation (AID 2044).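 Also: intracellular parasites grown in NIH/3T3 mouse fibroblasts as host cells; luminescent beta-galactosidase reporter signal from transgenic T. cruzi replicating inside host cells; inhibitors lower the luminescence signal.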 Format: functional, cell-based.
Test [3] can be described thus: DRD fibroblast viability loss – cell-based, non-viral oncogenic, luminescence, dose response (AID 1934). Format: functional. The settings on record: Homo sapiens.
Test [4] relates to BJ. As to the kind of experiment: BJ-TERT-LT-ST fibroblast viability loss – cell-based, RAS-independent, luminescence, dose response (AID 1935).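 Also: BJ fibroblasts immortalized with TERT plus LT and ST oncogenes.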 Format: functional. As to conditions: Homo sapiens.
The nature of test [5]: loss of viability in HepG2 cells – cell-based, CellTiter-Glo, cherry-picked, cytotoxicity control for Shn3 inhibitor project, dose response (AID 624134). It counts as functional.
The subject of test [6] is BJ. As to the kind of experiment: cells. Format: functional, cell-based. The settings on record: Homo sapiens.
Test [7] relates to BJ. As to the kind of experiment: BJ-TERT fibroblast viability loss – cell-based, RAS-independent, luminescence, dose response (AID 1933). As to conditions: Homo sapiens. It counts as functional.
Test [8] has as its target Sphingosine 1-phosphate receptor 1 (Homo sapiens, UniProt P21453). Format: functional.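 Also: Tango beta-arrestin reporter U2OS cells stimulated with S1P near its EC80; inhibitor potency meaning antagonism of receptor activation by the natural agonist.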
The nature of test [9]: NIH3T3 cell viability loss – ATP luminescence, mouse fibroblasts, counter-screen, dose response (AID 2010).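 Also: cells exposed to compound for about 90 hours before reading.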 Format: functional, cell-based.
Test [10] has as its target T1, Sphingosine 1-phosphate receptor 4 (Homo sapiens, UniProt O95977).
T1 sequence (O95977 whole entry): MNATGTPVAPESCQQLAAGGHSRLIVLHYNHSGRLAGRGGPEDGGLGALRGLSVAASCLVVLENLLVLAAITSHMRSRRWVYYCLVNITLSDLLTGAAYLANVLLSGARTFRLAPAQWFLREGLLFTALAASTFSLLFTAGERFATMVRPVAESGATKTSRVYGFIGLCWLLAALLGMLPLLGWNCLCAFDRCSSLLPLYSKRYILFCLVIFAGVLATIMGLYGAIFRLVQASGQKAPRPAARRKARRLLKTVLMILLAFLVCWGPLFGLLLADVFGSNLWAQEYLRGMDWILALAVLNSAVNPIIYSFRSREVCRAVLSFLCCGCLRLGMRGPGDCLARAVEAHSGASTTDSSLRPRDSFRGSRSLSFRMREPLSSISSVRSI
As to the kind of experiment: Late stage fluorescence dose response cell-based screening assay for antagonists of the Sphingosine 1-Phosphate Receptor 4 (S1P4). [Related pubchem assays: 1524 (Confirmation screen (S1P4 antagonists).), 1510 (Primary screen (S1P4 antagonists).), 1853 (Summary AID (S1P4 antagonists).), 1692 (Dose response screen (S1P4 antagonists).)]. It counts as functional.

Test [11] is described as follows: microbe, parasite or virus in culture. It counts as functional. As to conditions: Mycobacterium tuberculosis.
Test [12] addresses T1, Sphingosine 1-phosphate receptor 4. As to the kind of experiment: Fluorescence dose response cell-based high throughput screening assay for antagonists of the Sphingosine 1-Phosphate Receptor 4 (S1P4). [Related pubchem assays: 1524 (Confirmation in triplicates.), 1510 (Primary screen.)]. It counts as functional.
The subject of the next test is INS1. As to the kind of experiment: INS-1E survival protection against cytokine death – cell-based, luminescence, retest, dose response (AID 449756).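 Also: cell death triggered by IL-1 beta plus TNF-alpha plus IFN-gamma mixture; protective hits raise ATP signal compared with cytokine alone wells.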 It counts as functional. The settings on record: Rattus norvegicus.
Test [13] is described as follows: reduction of Shn3 3'UTR-driven luciferase in osteoblasts – cell-based, Clone20 osteoblasts, firefly luciferase, cherry-picked, dose response (AID 624132).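 Also: firefly luciferase luminescence from reporter carrying the Shn3 3'UTR in osteoblasts.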 Format: functional.
The nature of test [14]: non-specific 3'UTR reporter inhibition in Clone20-Shn3RL – cell-based, Renilla luciferase, cherry-picked, counter-screen for Shn3 inhibitor project, dose response (AID 624133). Format: functional.
For test [15], the target named is Neurotensin receptor type 1 (Homo sapiens, UniProt P30989). It counts as functional.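 Also: Image-based confirmatory dose-response assay measuring agonist activity at NTR1; NTR1-expressing U2OS osteosarcoma cells imaged for beta-arrestin GFP spot formation; agonist potency where compounds increase beta-arrestin recruitment.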
Neurotensin receptor type 1, sequence (P30989 whole entry): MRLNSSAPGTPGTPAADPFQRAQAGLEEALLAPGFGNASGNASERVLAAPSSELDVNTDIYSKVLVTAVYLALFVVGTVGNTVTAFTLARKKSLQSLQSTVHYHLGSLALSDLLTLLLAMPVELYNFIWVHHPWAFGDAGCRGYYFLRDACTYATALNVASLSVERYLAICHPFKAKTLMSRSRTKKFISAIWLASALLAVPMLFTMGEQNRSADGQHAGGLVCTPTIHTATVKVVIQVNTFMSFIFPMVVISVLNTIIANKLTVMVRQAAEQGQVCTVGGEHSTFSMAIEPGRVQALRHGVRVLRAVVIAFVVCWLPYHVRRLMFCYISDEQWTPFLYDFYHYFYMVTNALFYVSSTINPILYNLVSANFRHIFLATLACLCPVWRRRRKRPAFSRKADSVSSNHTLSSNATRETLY
The target in test [16] is Polyadenylate-binding protein 1 (Homo sapiens, UniProt P11940). Put plainly: blockers of PABP interaction with poly(A) – biochemical, fluorescence polarization, […] (AID 2014).
Polyadenylate-binding protein 1, sequence (P11940 whole entry): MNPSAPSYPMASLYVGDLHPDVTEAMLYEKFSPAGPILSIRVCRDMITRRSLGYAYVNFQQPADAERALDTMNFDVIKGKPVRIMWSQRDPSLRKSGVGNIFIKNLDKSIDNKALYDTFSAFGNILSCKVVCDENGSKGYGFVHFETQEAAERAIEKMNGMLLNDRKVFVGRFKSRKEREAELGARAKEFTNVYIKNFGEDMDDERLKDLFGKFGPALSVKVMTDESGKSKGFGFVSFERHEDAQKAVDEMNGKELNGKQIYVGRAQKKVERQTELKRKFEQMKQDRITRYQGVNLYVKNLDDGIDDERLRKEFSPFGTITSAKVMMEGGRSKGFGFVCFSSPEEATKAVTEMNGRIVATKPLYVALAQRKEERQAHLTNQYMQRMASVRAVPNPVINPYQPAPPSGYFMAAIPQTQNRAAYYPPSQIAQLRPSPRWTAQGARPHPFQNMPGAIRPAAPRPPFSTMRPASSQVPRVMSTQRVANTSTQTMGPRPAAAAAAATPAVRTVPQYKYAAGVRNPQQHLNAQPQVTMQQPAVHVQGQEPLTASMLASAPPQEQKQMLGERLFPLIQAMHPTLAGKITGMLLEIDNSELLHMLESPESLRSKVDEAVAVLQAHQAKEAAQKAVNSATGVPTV
The target of test [17] is Eukaryotic translation initiation factor 4H (Homo sapiens, UniProt Q15056). As to the kind of experiment: eIF4H binding inhibition – biochemical, uHTS, fluorescence polarization, translation initiation inhibitor project, primary screen (AID 2012).
Another test concerns the target X-box-binding protein 1 (Homo sapiens, UniProt P17861). Format: functional, Cricetulus griseus.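 Also: confirmatory dose-response counter-screen serving a CHOP assay.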
The next test deals with Coagulation factor XII (Homo sapiens, UniProt P00748). As to the kind of experiment: activated coagulation factor XII inhibitor potency, concentration-effect curve, cell-free (AID 716). Format: functional.
Coagulation factor XII, sequence (P00748 20-372 limits assumed): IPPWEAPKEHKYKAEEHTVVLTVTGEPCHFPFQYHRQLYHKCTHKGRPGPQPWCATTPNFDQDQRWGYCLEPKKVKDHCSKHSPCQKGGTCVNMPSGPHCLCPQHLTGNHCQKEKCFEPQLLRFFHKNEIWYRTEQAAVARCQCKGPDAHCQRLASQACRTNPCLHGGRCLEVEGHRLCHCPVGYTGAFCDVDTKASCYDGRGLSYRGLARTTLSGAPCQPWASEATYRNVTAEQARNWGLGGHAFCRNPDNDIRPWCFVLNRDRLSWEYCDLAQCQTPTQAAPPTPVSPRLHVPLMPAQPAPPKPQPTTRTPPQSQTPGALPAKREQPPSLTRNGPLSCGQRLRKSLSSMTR
Coagulation factor XII, sequence (P00748 373-615 limits assumed): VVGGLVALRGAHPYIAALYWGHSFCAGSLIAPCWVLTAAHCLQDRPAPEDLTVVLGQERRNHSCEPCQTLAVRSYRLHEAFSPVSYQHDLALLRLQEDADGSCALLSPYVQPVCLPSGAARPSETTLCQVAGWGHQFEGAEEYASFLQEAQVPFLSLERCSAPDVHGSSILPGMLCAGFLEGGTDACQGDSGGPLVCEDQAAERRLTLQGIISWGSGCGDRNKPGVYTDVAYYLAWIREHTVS
Test [18] concerns the target Scavenger receptor class B member 1 (Mus musculus, UniProt Q61009). As to the kind of experiment: mouse SR-BI DiI-HDL uptake blockers – ldlA[mSR-BI] cells, fluorescence, cherry pick, dose response (AID 493194).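 Also: cellular uptake of fluorescent DiI-labeled HDL measured as cell fluorescence.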 Format: functional, cell-based.
Test [19] addresses Metabotropic glutamate receptor 4 (Rattus norvegicus, UniProt P31423). Put plainly: Modulation of the Metabotropic Glutamate Receptor mGluR4: Rat PAM Potency. [Related pubchem assays (depositor defined):AID2437, AID2807]. Format: functional.
The subject of a further test is T-cell. As to the kind of experiment: loss of vesicle association with mouse CD8+ T cells – mouse 2C CD8+ T cells, flow cytometry, dose response (AID 485284). It counts as functional.
Test [20] can be described thus: cells. It counts as functional.
Test [21] in a line: Vero E6 cell cytotoxicity, dose response, cytotoxicity control for non-replicating M. tuberculosis project, secondary assay (AID 492998). As to conditions: Vero C1008. Format: functional, VeroE6.
Test [22] in a line: A cytotoxicity screen of small molecule inhibitors of the PhoP region in Salmonella typhi identified in the primary screen. [Related pubchem assays: 1850, 1864, 1985 ]. It counts as functional.
A short description of test [23]: HepG2 cell cytotoxicity, dose response, cytotoxicity control for non-replicating M. tuberculosis project (AID 489018). It counts as functional. The settings on record: Mycobacterium tuberculosis.
The test system of a further test is Trypanosoma cruzi. Put plainly: anti-trypanosomal activity in host cells – cell-based, plate reader, dry powder, set 3, dose response (AID 493197). Format: functional.
Test [24] is described as follows: NIH-3T3 fibroblast cytotoxicity, dose response, cytotoxicity control, cell-based, fluorescence, Alamar Blue, secondary assay (AID 2327).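 Also: NIH-3T3 mouse fibroblasts cultured with fluconazole at 8 µg/mL.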 Format: functional.
Test [25] in a line: NIH/3T3 cell viability loss – mouse embryonic fibroblasts, dry powder, set 2, cytotoxicity control, dose response (AID 493247). It counts as functional, cell-based. The settings on record: Fibroblast.
A short description of test [26]: cells.
Test [27] in a line: fluconazole-exposed Candida albicans growth modulators – fluorescence, retest, confirmation (AID 2467). Format: functional, cell-based.
Test [28] can be described thus: THP-1 cell cytotoxicity, dose response, cytotoxicity control for non-replicating M. tuberculosis project (AID 489025). Format: functional.
For test [29], the target named is T1, Sphingosine 1-phosphate receptor 4. As to the kind of experiment: potency of S1P4 activators – cell-based, fluorescence, synthesized compounds, late-stage follow-up (AID 463107). Format: functional.
In test [30] the target is T2, Nucleotide-binding oligomerization domain-containing protein 1 (Homo sapiens, UniProt Q9Y239).
T2 sequence (Q9Y239 whole entry): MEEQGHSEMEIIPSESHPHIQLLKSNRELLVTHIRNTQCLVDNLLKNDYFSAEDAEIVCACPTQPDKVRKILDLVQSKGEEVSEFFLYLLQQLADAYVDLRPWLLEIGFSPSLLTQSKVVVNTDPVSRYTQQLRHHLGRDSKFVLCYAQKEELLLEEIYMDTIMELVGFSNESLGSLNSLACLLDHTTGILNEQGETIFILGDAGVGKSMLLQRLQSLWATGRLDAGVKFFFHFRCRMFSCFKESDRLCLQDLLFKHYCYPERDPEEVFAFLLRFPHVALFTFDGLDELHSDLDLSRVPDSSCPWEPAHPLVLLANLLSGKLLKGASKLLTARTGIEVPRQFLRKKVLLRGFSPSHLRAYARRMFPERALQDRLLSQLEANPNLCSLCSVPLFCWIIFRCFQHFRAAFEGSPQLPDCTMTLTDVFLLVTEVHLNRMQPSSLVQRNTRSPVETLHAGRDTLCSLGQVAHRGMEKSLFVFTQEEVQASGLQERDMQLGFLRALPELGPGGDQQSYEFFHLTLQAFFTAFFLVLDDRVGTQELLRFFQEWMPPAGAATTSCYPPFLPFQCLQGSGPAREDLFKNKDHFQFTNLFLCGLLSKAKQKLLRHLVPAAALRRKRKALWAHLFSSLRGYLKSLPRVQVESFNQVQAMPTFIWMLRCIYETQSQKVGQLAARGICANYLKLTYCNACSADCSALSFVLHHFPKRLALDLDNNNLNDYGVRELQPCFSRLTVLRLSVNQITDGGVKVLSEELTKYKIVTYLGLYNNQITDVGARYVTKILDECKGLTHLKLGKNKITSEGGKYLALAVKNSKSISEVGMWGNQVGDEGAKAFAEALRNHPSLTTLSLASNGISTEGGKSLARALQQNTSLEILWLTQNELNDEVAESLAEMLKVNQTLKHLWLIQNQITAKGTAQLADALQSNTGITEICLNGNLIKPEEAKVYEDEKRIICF
As to the kind of experiment: blockers of NOD1 pathway activity – revised, SAR follow-up (AID 2333). It counts as functional.

For the next test, the system named is HEK293. As to the kind of experiment: cells. The settings on record: Homo sapiens.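 Also: cells exposed to compound for 14 hours overnight before viability readout.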
For test [31], the target named is Nucleotide-binding oligomerization domain-containing protein 2 (Homo sapiens, UniProt Q9HC29). As to the kind of experiment: PubChem AID 2334. It counts as functional.
Nucleotide-binding oligomerization domain-containing protein 2, sequence (Q9HC29 whole entry, the tested form may be a part): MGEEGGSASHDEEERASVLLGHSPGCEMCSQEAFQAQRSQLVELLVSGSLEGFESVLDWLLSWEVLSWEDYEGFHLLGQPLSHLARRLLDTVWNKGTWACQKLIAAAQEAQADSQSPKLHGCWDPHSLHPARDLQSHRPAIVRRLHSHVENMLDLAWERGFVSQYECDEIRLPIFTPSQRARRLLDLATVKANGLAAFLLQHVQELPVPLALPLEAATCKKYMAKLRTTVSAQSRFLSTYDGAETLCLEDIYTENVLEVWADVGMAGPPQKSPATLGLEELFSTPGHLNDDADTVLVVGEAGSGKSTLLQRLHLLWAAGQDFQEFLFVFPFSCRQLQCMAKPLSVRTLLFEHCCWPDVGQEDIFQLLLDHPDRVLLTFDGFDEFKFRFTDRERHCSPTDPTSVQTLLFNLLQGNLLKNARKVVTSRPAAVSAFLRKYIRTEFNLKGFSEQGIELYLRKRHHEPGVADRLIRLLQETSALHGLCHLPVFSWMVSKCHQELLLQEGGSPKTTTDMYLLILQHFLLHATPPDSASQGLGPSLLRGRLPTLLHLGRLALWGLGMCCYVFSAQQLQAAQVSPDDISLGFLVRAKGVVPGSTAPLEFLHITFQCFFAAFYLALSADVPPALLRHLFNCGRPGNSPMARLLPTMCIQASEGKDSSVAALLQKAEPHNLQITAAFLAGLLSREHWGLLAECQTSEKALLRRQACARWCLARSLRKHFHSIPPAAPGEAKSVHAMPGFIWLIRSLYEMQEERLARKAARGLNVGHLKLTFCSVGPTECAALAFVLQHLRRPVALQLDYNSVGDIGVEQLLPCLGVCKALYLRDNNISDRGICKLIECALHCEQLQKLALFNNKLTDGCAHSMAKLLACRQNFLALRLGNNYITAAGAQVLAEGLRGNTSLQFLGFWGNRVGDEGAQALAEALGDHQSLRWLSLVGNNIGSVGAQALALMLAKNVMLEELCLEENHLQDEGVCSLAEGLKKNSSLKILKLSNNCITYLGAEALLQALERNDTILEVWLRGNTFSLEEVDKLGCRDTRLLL
The next test concerns the target Tumor necrosis factor (Homo sapiens, UniProt P01375). As to the kind of experiment: analog potency on TNFa NF-kB signaling – cell-based, revised, SAR follow-up (AID 2337). Format: functional.
Test [32] concerns the target Cyclin-dependent kinase 5/CDK5 activator 1 (Homo sapiens, UniProt Q00535). Put plainly: blockade of human CDK5 activity – biochemical, cherry-picked samples, set 2, dose response (AID 504545).

Scavenger receptor class B member 1, sequence (Q61009 whole entry): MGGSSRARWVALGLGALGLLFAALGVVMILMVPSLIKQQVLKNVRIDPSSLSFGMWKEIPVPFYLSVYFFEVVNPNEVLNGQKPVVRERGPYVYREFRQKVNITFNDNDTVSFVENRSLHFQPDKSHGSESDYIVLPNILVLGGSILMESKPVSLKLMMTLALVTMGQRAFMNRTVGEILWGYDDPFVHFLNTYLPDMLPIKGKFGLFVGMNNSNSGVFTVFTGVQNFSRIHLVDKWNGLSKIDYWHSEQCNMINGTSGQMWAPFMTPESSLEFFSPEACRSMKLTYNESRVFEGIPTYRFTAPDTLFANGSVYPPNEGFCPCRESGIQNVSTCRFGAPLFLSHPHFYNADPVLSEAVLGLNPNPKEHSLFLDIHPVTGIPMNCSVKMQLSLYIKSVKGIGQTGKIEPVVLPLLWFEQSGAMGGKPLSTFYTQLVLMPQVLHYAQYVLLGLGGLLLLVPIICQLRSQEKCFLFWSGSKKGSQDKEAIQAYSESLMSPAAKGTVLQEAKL
Tumor necrosis factor, sequence (P01375 whole entry): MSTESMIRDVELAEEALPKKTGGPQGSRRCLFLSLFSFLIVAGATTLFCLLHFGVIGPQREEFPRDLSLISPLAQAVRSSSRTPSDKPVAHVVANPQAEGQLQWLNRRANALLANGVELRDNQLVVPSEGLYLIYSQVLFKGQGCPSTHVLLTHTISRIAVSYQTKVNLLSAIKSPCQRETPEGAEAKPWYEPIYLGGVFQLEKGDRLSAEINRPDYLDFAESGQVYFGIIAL
Cyclin-dependent kinase 5/CDK5 activator 1, sequence (Q00535 whole entry): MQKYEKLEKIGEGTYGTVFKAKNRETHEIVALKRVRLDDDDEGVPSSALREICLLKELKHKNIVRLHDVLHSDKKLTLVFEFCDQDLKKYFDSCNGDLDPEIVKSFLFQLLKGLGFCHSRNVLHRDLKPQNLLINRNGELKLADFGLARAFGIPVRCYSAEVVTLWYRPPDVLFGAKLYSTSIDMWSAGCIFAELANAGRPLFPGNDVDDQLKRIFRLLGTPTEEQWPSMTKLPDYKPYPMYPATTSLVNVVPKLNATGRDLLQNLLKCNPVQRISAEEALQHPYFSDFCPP
Cyclin-dependent kinase 5/CDK5 activator 1, sequence (Q15078 whole entry, further chain): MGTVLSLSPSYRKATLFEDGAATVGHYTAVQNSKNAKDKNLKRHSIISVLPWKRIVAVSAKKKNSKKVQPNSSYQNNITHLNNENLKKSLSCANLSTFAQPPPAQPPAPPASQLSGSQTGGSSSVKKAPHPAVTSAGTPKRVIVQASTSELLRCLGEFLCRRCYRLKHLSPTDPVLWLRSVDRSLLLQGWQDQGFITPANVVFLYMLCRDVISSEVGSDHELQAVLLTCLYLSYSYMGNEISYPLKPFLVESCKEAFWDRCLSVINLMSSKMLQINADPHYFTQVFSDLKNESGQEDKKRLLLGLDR
X-box-binding protein 1, sequence (P17861 whole entry): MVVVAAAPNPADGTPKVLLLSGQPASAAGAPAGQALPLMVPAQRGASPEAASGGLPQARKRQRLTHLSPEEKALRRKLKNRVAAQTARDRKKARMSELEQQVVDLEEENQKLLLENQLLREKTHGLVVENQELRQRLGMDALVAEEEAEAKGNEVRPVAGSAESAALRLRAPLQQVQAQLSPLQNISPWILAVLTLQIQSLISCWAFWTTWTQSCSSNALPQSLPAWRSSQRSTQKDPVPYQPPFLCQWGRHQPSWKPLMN
Sphingosine 1-phosphate receptor 1, sequence (P21453 whole entry): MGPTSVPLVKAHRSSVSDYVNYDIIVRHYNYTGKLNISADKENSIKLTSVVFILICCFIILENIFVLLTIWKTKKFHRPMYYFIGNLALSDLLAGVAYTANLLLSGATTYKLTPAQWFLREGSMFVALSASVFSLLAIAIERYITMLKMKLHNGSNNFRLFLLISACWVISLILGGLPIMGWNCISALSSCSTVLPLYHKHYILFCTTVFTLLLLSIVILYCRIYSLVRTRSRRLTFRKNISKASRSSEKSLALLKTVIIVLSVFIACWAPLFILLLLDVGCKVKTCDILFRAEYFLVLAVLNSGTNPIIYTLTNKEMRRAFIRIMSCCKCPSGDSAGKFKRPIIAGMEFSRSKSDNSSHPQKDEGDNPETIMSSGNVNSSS

For the compound `N=C(N)SCCc1cccc(CCSC(=N)N)c1`, the CC50 in test [1] was 47.9 µM (active).

As to `O=C(/C(=C/c1ccc(Cl)cc1)c1nc2ccccc2[nH]1)c1cccs1`, the 50% effective concentration (EC50) in test [2] was 1.03 µM (active); in [3] it was 5.28 µM (inconclusive); in the test on BJ [4], 3.71 µM (inconclusive); in the test with BJ [6], 9.34 µM (active); in the test on BJ [7] it was 4.27 µM (inconclusive); in [9], 5.47 µM (active). For the same compound, the EC50 in [15] is 12.6 µM (active). The AC50 in [5] is 8.26 µM (active); with INS1 it was 3.71 µM (active); in test [13], 2.66 µM (active); in test [14] it was 8.35 µM (active). Further, the 50% inhibitory concentration (IC50) in [8] was 6.77 µM (active); in [10] it was 0.737 µM (active); in test [12] it was 0.37 µM (active). Further, the CC50 in [11] is 2.9 µM (active).

With `O=C(COC(=O)CCC(=O)c1ccc(Cl)cc1)NCc1ccco1`, the IC50 is 26.7 µM (active) in test [16] and 11.1 µM (active) in test [17].

For `O=C(NCc1ccccc1)c1cc(-c2ccncc2)nc2ccc(S(=O)(=O)N3CCOCC3)cc12`, on X-box-binding protein 1, the “Absolute IC50 (XBP1)” value was found to be 10 µM.

Take `CCOC(=O)c1[nH]c2ccc(OC)cc2c1NC(=O)N1CCOCC1`: the IC50 at Coagulation factor XII is > 50 µM (inactive).

For the compound `Cc1c(C(=O)OCCOC(C)C)[nH]c2c1C(=O)CC(c1ccco1)C2` (stereo not given), the 50% effective concentration (EC50) in test [3] is 1.28 µM (inconclusive); in the test with BJ [4], 0.73 µM (inconclusive); in the test on BJ [6], 1.71 µM (inconclusive); in the test on BJ [7], 0.37 µM (active). Moreover, the AC50 in [18] was 34 µM (active).

In the case of `CC1(C)[C@@H]2C(=O)N(c3ccc(NC(=O)c4ccccn4)cc3Cl)C(=O)[C@@H]21`, the EC50 in [19] was 0.69 µM (active).

On to `CCOC(=O)/C=C1\SCC(=O)N1CC(=O)NC1CCCCC1`, for which the concentration giving a half-maximal response (EC50) in the test on T-cell is 7.17 µM (active).

For the compound `O=C(CCC(=O)Nc1ccc(Cl)cc1Cl)N/N=C/c1ccc([N+](=O)[O-])o1`, the EC50 in test [2] is < 0.1 µM (active); in [22], > 50 µM (active); in test [24], 8.66 µM (inconclusive); in the test “cells [26]”, 0.007 µM (active); in test [27], 2.3 µM (active). Also, in the test “cells [20]”, the IC50 is 0.85 µM (active). Further, the CC50 is > 20 µM (active) in [21], 14 µM (active) in test [23] and 17.4 µM (active) in [28]. Besides, the concentration at half-maximal activity (AC50) in the test on Trypanosoma cruzi is < 0.003 µM (active); in test [25], 11.4 µM (active); in the test on INS1, 15.2 µM (active).

Regarding `O=[N+]([O-])c1ncccc1OCCOc1ccc(Cl)cc1Cl`, in [29], the EC50 was 29.8 µM (inactive).

In the case of `CCC1CCc2c(sc(NC(=O)c3ccccc3Br)c2C(=O)OC)C1` (stereo not given), the IC50 (in test [30]; in the test with HEK293; in test [31]; at Tumor necrosis factor) was > 20 µM (inactive) throughout.

As to `Cc1nn(-c2ccc(Cl)cn2)c2c1C(=O)CC(C)(C)C2Br` (stereo not given), in test [32], the half-maximal activity concentration (AC50) is 89.2 µM (active).

For the origin of these results see ChEMBL document CHEMBL1201862, “PubChem BioAssay data set” (2004).
